Entries after “also recorded” stand apart in the source; their conditions may differ. Each block holds one molecule with its values, some of them ahead of it.
Columns and labels:
[1] = molecular target: T1, Aβ (1-40) peptide aggregation / fibril formation (Homo sapiens, UniProt P05067); assay: TIRFM study of inhibition of Aβ fibril formation; assay type: biochemical; details: for inhibition of Aβ peptide aggregation and fibril growth: TIRFM, ThT dye excited at 445 nm
T1 construct: Aβ(1-40) fibrils prepared from Aβ40 with seed incubated at 37° C. for an hour in buffer
From the text: These images were obtained by an addition of ThT dye excited at 445 nm.
The panels below show the images of seed only and Aβ fibril formation without the carbazole-based fluorophore for comparison. These images were obtained by an addition of ThT dye excited at 445 nm.
A novel series of water-soluble carbazole-based fluorophores has been designed and developed. […] Upon binding with Aβ peptides, there is about 8- to about 82-fold increase in fluorescence intensity concomitant with the substantial blue shifts (Δλ=14-22 nm) in the emission spectra of the fluorophores (FIG. 2A-2H). […] (e.g. Ffibril/FSLOH=81.5 vs. Fpeptide/FSLOH=6.3). Because of such strong increase in fluorescence, the signal-to-noise ratio is so high that imaging of single fibrils is possible. (FIG. 3A-3C) Compared to common commercial labeling dyes for Aβ such as Thioflavin-T and Congo Red, the carbazole-based fluorophores of the present invention provide an advantage of a wide range of excitation and emission tuning in visible to infra-red region (FIG. 4A-4B). Some of these molecules, e.g., SAM and SAOH, even emit at ˜[…] (FIG. 5A-5B), which can potentially be used for near infra-red fluorescence imaging. In addition to fluorescence titration, the binding of Aβ peptide and fibril with the carbazole-based fluorophores of the present invention were further confirmed by circular dichroism spectroscopy (FIG. 6A-6B), and electrospray ionization-mass spectrometry (ESI-MS). Total Internal Reflection Fluorescence Microscope (TIRFM) technique developed by us was used to investigate the inhibition effects of these functional fluorophores on Aβ fibril formation (FIG. 7A-7F). […] Such inhibitory effect was further confirmed by Transmission Electron Microscopy (TEM) study (FIG. 8A-8B).
The inhibitory effect of the carbazole-based fluorophores of the present invention on Aβ fibril growth was further investigated by measuring the (average) length of the Aβ fibrils formed after incubation of the Aβ monomers for 60 min with additions of SLOH at different time points during this period (FIG. 9A-9B). Parallel experiments conducted without any addition of SLOH were used as controls.
Total Internal Reflection Fluorescence Microscope (TIRFM) technique developed was used to investigate the inhibition effects of these functional fluorophores on Aβ (1-40) fibril formation (FIG. 17).

SH-SY5Y neuronal cell [2] = assay: MTT reduction assay, cytotoxicity
Procedure: Human neuroblastoma SH-SY5Y neuronal cells were incubated with different concentrations of SLCOOH-conjugated SiO2@Fe3O4 nanoparticles at 37° C. for 24 h.

[3] = tested on: primary cortical neural cells; assay: Protection from Aβ-induced cytotoxicity; assay type: cell-based; details: Aβ monomer, oligomers and fibrils
From the text: (§1) The reactive oxygen species (ROS) induced by the Aβ toxicity causes much damage in AD.

[4] = tested on: ROS in primary cortical cells; assay: Reduction of ROS induced by Aβ species; assay type: cell-based
From the text: as §1

[5] = Blood-brain barrier penetration after tail vein injection; assay type: in vivo; details: mice
From the text: (§2) However, in order for the observed neuroprotective effect to be clinically useful, these molecules need to be able to pass through the blood-brain barrier.

Aβ plaques = assay: Aβ plaque targeting in brain, co-stained with ThT or Aβ antibody; assay type: in vivo, transgenic mice; details: brain slides co-stained with ThT or Aβ antibody with DAB stain
From the text: as §2
(A) Differential Interference Contrast (DIC) image of the brain slice of a 12-month-old APP/PS1 Tg mouse. (B) Histological staining of the brain slice with SLCOOH-conjugated SiO2@Fe3O4 nanoparticles (λex=500 nm, λem=620-680 nm). (C) ThT fluorescence images of the brain slice captured with λex=405 nm, λem=460-490 nm (D) The superimposed images of (B) and (C).

[6] = Fluorescence spectra in phosphate buffer solution; assay type: physicochemical
From the text: (§3) A novel series of water-soluble carbazole-based fluorophores has been designed and developed. […] Upon binding with Aβ peptides, there is about 8- to about 82-fold increase in fluorescence intensity concomitant with the substantial blue shifts (Δλ=14-22 nm) in the emission spectra of the fluorophores (FIG. 2A-2H). […] (e.g. Ffibril/FSLOH=81.5 vs. Fpeptide/FSLOH=6.3). Because of such strong increase in fluorescence, the signal-to-noise ratio is so high that imaging of single fibrils is possible. (FIG. 3A-3C) Compared to common commercial labeling dyes for Aβ such as Thioflavin-T and Congo Red, the carbazole-based fluorophores of the present invention provide an advantage of a wide range of excitation and emission tuning in visible to infra-red region (FIG. 4A-4B). Some of these molecules, e.g., SAM and SAOH, even emit at ˜[…] (FIG. 5A-5B), which can potentially be used for near infra-red fluorescence imaging. In addition to fluorescence titration, the binding of Aβ peptide and fibril with the carbazole-based fluorophores of the present invention were further confirmed by circular dichroism spectroscopy (FIG. 6A-6B), and electrospray ionization-mass spectrometry (ESI-MS). Total Internal Reflection Fluorescence Microscope (TIRFM) technique developed by us was used to investigate the inhibition effects of these functional fluorophores on Aβ fibril formation (FIG. 7A-7F). […]

SH-SY5Y neuronal cell [7] = assay: Protection of neuronal cells from Aβ oligomer and fibril toxicity; assay type: cell-based, Human; details: incubated for 2 and 6 hours
[8] = tested on: Aβ(1-40) and Aβ(1-42) peptides; assay: Fluorescence titration of the fluorophores with Aβ peptides; assay type: binding; details: Aβ peptide
From the text: as §3

Aβ(1-40) fibrils = molecular target: T2, Aβ(1-40) fibrils (Homo sapiens, UniProt P05067); assay: Fluorescence titration of the fluorophores with Aβ fibrils; assay type: binding
T2 construct: Aβ(1-40) fibrils prepared from Aβ40 with seed incubated at 37° C. for an hour in buffer
From the text: as §3

T1 sequence (P05067 672-711): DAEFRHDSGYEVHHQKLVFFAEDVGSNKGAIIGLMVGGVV
T2 sequence (P05067 672-711): as above

Structure (SMILES): COCCOCCn1c2ccc(F)cc2c2cc(/C=C/c3cc[n+](CCO)c4ccccc34)ccc21 [F-SLOH, (E)-4-(2-(6-Fluoro-9-(2-(2-methoxyethoxy)ethyl)-9H-carbazol-3-yl)vinyl)-1-(2-hydroxyethyl)quinolin-1-ium chloride]
inhibition of Aβ peptide aggregation and fibril growth [1]: inhibit Aβpeptide aggregation and prevent fibril growth; also recorded: inhibit Aβ (1-40) peptide aggregation and prevent fibril growth; also recorded: potent Aβ aggregation inhibitors
toxicity (in words) (SH-SY5Y neuronal cell [2]): non-toxic
protection from the neurotoxic effects of the Aβ species [3]: protected from the neurotoxic effects of the Aβ species; also recorded: protective effect against the neurotoxic activities of the Aβ oligomers and fibrils
reduction of ROS induced by the Aβ species [4]: reduce the ROS induced by the Aβ species
ability to penetrate the blood-brain barrier [5]: show blood-brain permeability; also recorded: ability to cross the blood-brain barrier
targeting of / selectivity towards Aβ plaques in brain (Aβ plaques): target the Aβ plaques

Structure (SMILES): Cn1c2ccccc2c2cc(/C=C/c3cc[n+](C)c4ccccc34)ccc21 [Me-SLM, (E)-1-methyl-4-(2-(9-methyl-9H-carbazol-3-yl)vinyl)quinolinium iodide]
inhibition of Aβ peptide aggregation and fibril growth [1]: inhibit Aβ peptide aggregation and prevent fibril growth

emission wavelength [6]: ~760 nm
Structure (SMILES): COCCOCCn1c2ccccc2c2cc(/C=C/c3c4ccccc4[n+](C)c4ccccc34)ccc21.[I-] [SAM, (E)-9-(2-(9-(2-(2-methoxyethoxy)ethyl)-9H-carbazol-3-yl)vinyl)-10-methylacridinium iodide]
inhibition of Aβ peptide aggregation and fibril growth [1]: inhibit Aβ peptide aggregation and prevent fibril growth

Structure (SMILES): COCCOCCn1c2ccccc2c2cc(/C=C/c3c4ccccc4[n+](CCO)c4ccccc34)ccc21.[I-] [SAOH, (E)-10-(2-hydroxyethyl)-9-(2-(9-(2-(2-methoxyethoxy)ethyl)-9H-carbazol-3-yl)vinyl)-acridinium iodide]
inhibition of Aβ peptide aggregation and fibril growth [1]: inhibition of Aβ fibril formation; also recorded: inhibit Aβ peptide aggregation and prevent fibril growth; also recorded: potent inhibitor of Aβ aggregation
toxicity (in words) (SH-SY5Y neuronal cell [2]): non-toxic
protection from the neurotoxic effects of Aβ oligomers and fibrils (SH-SY5Y neuronal cell [7]): protected from the neurotoxic effects of the Aβ oligomers and fibrils; also recorded: protective effect against the neurotoxic activities of the Aβ oligomers and fibrils
emission wavelength [6]: ~760 nm

Structure (SMILES): COCCOCCn1c2ccccc2c2cc(/C=C/c3cc[n+](CC(N)=O)c4ccccc34)ccc21 [SLAD, (E)-1-(2-Amino-2-oxoethyl)-4-(2-(9-(2-(2-methoxyethoxy)ethyl)-9H-carbazol-3-yl)vinyl)quinolin-1-ium bromide]
inhibition of Aβ peptide aggregation and fibril growth [1]: inhibit Aβpeptide aggregation and prevent fibril growth; also recorded: inhibit Aβ (1-40) peptide aggregation and prevent fibril growth; also recorded: potent Aβ aggregation inhibitors
toxicity (in words) (SH-SY5Y neuronal cell [2]): non-toxic
protection from the neurotoxic effects of the Aβ species [3]: protected from the neurotoxic effects of the Aβ species; also recorded: protective effect against the neurotoxic activities of the Aβ oligomers and fibrils
reduction of ROS induced by the Aβ species [4]: reduce the ROS induced by the Aβ species
ability to penetrate the blood-brain barrier [5]: show blood-brain permeability; also recorded: ability to cross the blood-brain barrier
targeting of / selectivity towards Aβ plaques in brain (Aβ plaques): target the Aβ plaques; also recorded: colocalization of fluorescence signals of SLAD and Aβ antibody

Structure (SMILES): CCOC(=O)C[n+]1ccc(/C=C/c2ccc3c(c2)c2ccccc2n3CCOCCOC)c2ccccc21 [SLAce, (E)-1-(2-Ethoxy-2-oxoethyl)-4-(2-(9-(2-(2-methoxyethoxy)ethyl)-9H-carbazol-3-yl)vinyl)quinolin-1-ium bromide]
inhibition of Aβ peptide aggregation and fibril growth [1]: inhibit Aβpeptide aggregation and prevent fibril growth; also recorded: inhibit Aβ (1-40) peptide aggregation and prevent fibril growth
ability to penetrate the blood-brain barrier [5]: show blood-brain permeability

Structure (SMILES): COCCOCCn1c2ccccc2c2cc(/C=C/c3cc[n+](CC(=O)O)c4ccccc34)ccc21.[Br-] [SLCOOH, (E)-1-(carboxymethyl)-4-(2-(9-(2-(2-methoxyethoxy)ethyl)-9H-carbazol-3-yl)vinyl)quinolin-1-ium bromide]
toxicity (in words) (SH-SY5Y neuronal cell [2]): non-toxic
ability to penetrate the blood-brain barrier [5]: BBB penetrable
targeting of / selectivity towards Aβ plaques in brain (Aβ plaques): able to target the Aβ species in-vivo with high affinity

Structure (SMILES): CC[n+]1ccc(/C=C/c2ccc3c(c2)c2ccccc2n3CCOCCOC)c2ccccc21 [SLE, (E)-1-ethyl-4-(2-(9-(2-(2-methoxyethoxy)ethyl)-9H-carbazol-3-yl)vinyl)quinolinium bromide]
inhibition of Aβ peptide aggregation and fibril growth [1]: inhibit Aβ peptide aggregation and prevent fibril growth

ability to penetrate the blood-brain barrier [5]: show blood-brain permeability
Structure (SMILES): COCCOCCn1c2ccccc2c2cc(/C=C/c3cc[n+](CCOCCOC)c4ccccc34)ccc21 [SLG, (E)-1-(2-(2-methoxyethoxy)ethyl)-4-(2-(9-(2-(2-methoxyethoxy)ethyl)-9H-carbazol-3-yl)vinyl)quinolinium iodide]
inhibition of Aβ peptide aggregation and fibril growth [1]: inhibit Aβpeptide aggregation and prevent fibril growth; also recorded: inhibit Aβ (1-40) peptide aggregation and prevent fibril growth

Structure (SMILES): COCCOCCn1c2ccccc2c2cc(/C=C/c3cc[n+](CCO)c4ccccc34)ccc21 [SLOH, (E)-1-(2-hydroxyethyl)-4-(2-(9-(2-(2-methoxyethoxy)ethyl)-9H-carbazol-3-yl)vinyl)-quinolinium chloride]
Fpeptide/FSLOH fluorescence enhancement [8]: 6.3
Ffibril/FSLOH fluorescence enhancement (Aβ(1-40) fibrils): 81.5
Aβ fibril growth (average fibril length) on addition of the compound ([1]; 50 μM added at different time points within 60 min incubation of Aβ monomer): strongly arrests its fibril growth
inhibition of Aβ peptide aggregation and fibril growth [1]: inhibition of Aβ fibril formation; also recorded: inhibit Aβ peptide aggregation and prevent fibril growth; also recorded: potent inhibitor of Aβ aggregation
toxicity (in words) (SH-SY5Y neuronal cell [2]): non-toxic
protection from the neurotoxic effects of Aβ oligomers and fibrils (SH-SY5Y neuronal cell [7]): protected from the neurotoxic effects of the Aβ oligomers and fibrils; also recorded: protective effect against the neurotoxic activities of the Aβ oligomers and fibrils
targeting of / selectivity towards Aβ plaques in brain (Aβ plaques): colocalization of fluorescence signals of SLOH and ThT; also recorded: colocalization of fluorescence signals of SLOH and Aβ antibody; also recorded: selectivity of SLOH towards Aβ plaques

Structure (SMILES): COCCOCCn1c2ccccc2c2cc(/C=C/c3cc[n+](CCCO)c4ccccc34)ccc21 [SLOH-Pr, (E)-1-(3-hydroxypropyl)-4-(2-(9-(2-(2-methoxyethoxy)ethyl)-9H-carbazol-3-yl)vinyl)-quinolinium bromide]
inhibition of Aβ peptide aggregation and fibril growth [1]: inhibit Aβ peptide aggregation and prevent fibril growth

From patent US9795694B2, “Imaging beta-amyloid peptides aggregation” (Hong Kong Baptist University, priority 2014, dated 2017)
